Experimental data from patent publication US8765946B2, “Methods of preparing and using quinazoline and quinoline derivatives” (priority 2006, dated 2014).

Experiments:
Assay type in all cases: cell-based
[1] = target: T1, A431 cells EGFR-TK phosphorylation stimulated by EGF (Homo sapiens, UniProt P00533); assay: Inhibition of cellular EGFR-TK phosphorylation stimulated by EGF in A431 cells; settings: for EC50: A431 cells EGFR-TK phosphorylation stimulated by EGF (Table 4); for inhibition at 3 µM: A-431, concentration of 3 μM, A431 cells, EGF stimulated, one-time measurement at a single concentration (preliminary selection), NA = No activity, read-out: Inhibition Percent (%)
T1 construct: against A431 cells EGFR-TK; endogenous in cells; host or cells: A431 cells
Procedure: Inhibition Experiment of Cellular Epidermal Growth Factor Receptor Tyrosine Kinase
1) A431 cells were cultured in a medium which was prepared by adding 10% FCS into another medium comprising 50% DMEM and 50% F12.
2) A431 cells grown in six-well plates were cultured in a serum-free medium for 24 hours. During the 24 hour period the medium was replenished once after 12 hours.
3) A solution containing a compound to be assessed was added the A431 cells and the cells were cultured for 2 hours, supplemented twice by a medium free of the compound, and then EGF (100 ng/well) was added, and cultured for 5 minutes.
4) A431 cell homogenate was prepared by Laemili buffer which comprised 2% sodium dodecyl sulfonate (SDS), 5% 2-mercaptoethanol, 10% glycerol and 5 mM Tris (pH 6.8).
5) The A431 cell homogenate was heated for 5 minutes at 100° C.
6) Proteins in the A431 cell homogenates were separated by PAGE and transferred onto a nitrocellulose membrane, and an infrared reading was obtained.

[2] = tested on: A431 cells; assay: Cell growth inhibition assay (MTS assay), A431; settings: Homo sapiens, A-431; A431 cells; MTS, 48 hours; read-out: Growth inhibition activity EC50
[3] = tested on: A431 cells; assay: A431 cell growth inhibition assay (MTT assay); settings: Homo sapiens; for inhibition at 3 µM: A-431, concentration of 3 μM, 72 hours, read-out: Inhibition Percent (%)
Procedure: A431 Cell Growth Inhibition Assay (MTT Assay)
A431, an epidermoid carcinoma cell line; The Cell Bank, Committee on Type Culture Collection Chinese Academy of Science, Shanghai.
Mix prepared medium DMEM and F12 in the proportion of 1:1, then add FBS to a final concentration of 10%.
Dissolved the dried compound sample with 100% DMSO to 2 mM. Then diluted the dissolved compound to 20 μM with cell complete growth medium.
Prior to the assay, cultured the A431 to logarithmic phase, and then removed medium from cell monolayers and wash the cells once with sterilized PBS. Aspriated the PBS and added 2 mL trypsin solution to cover the cell growth surface, removed 1 mL trypsin solution after soaking about 1 minute. Transferred the cell-culture plate to CO2 incubator; incubated at 37° C. for 8 minutes to allow cells to dissociate. After the cells detached, added 4 mL complete growth medium containing FBS with pipette to disperse them off and mixed gently to obtain a homogeneous cell suspension. Aspirated some of the cell suspension to a sterilized polypropylene tube, and determined the cell concentration by counting in a hematocytometer chamber under a microscope. Adjusted the cell concentration with growth medium to obtain 2.5×10^4 cells per milliliter.
Added 100 μL adjusted cell suspension to the 96-well cell-culture plate and occasionally mixed the cell suspension during the seeding process. After seeding cells, incubated the plate at 37° C. overnight with 5% CO2 in the CO2 incubator for cell attachment.
After the cell attachment, added 100 μL prepared compound solutions to the corresponding wells (add PBS to the ambient wells of the plate). The final compound concentrations ranged from 10 μM to 1.52 nM. Incubated the plate at 37° C. with 5% CO2 for 72 hours in the CO2 incubator.
After the exposure to the compound, removed the cell culture supernatant. Then added 100 μL 0.5 mg/mL MTT solution which dissolved in the growth medium without FBS. Incubated the plate at 37° C. with 5% CO2 for another 4 hours to allow the MTT reaction to proceed.
After the MTT reaction, discarded the MTT reaction solution. Added 100 μL DMSO to each well, and the plate was agitated on the plate shaker for several minutes to dissolve the formazan. Then, detected the absorbance at 490 nm using microplate reader.

[4] = tested on: BT474 cells; assay: BT-474 cell growth inhibition assay (SRB assay); settings: Homo sapiens, concentration of 3 μM, 72 h, read-out: Inhibition Percent (%)
Procedure: BT-474 Cell Growth Inhibition Assay (SRB Assay)
BT-474 human breast cancer cell lines were kindly provided by Dr. Changnian Liu, Pharmaron Beijing Co., Ltd.
BT-474 cells were cultured in 37° C., 5% CO2, saturated humidity until logarithmic phase. Discarded culture medium, washed cells once by PBS. Added 1 ml Trypsin/EDTA solution, stood at 37° C. for 5 min, allowed the cells to detach. Added culture medium, adjusted the cells density to 1×10^5 cells/ml.
Day 0, added 100 μl/well cells suspension to 96-well cell culture plates. Incubated overnight to let the cells attach completely.
Day 1, compounds (2 mM in DMSO as stock solution) was diluted to 20 μM in EMEM. Then a fourfold serial dilution was made. These diluted compounds were made as 10× reaction solutions, and the concentration of DMSO was kept at 1%.
Added 80 μl culture medium and 20 μl 10× compound reaction solution to the testing wells, or vehicle control to the control wells. Co-incubated cells with compounds for another 72 h.
Day 3, fixed cellular protein by the addition of 100 μl/well of 10% TCA (diluting from 50% TCA) at 4° C. for 1 h. Rinsed TCA using plate washer, and washed five times using distilled water. Removed the residual wash solution with a piece of absorbent paper. Added 100 μl/well 0.4% SRB solution, allowed a 15-30 min staining period. Removed the SRB, and washed the culture plates five times using 1% acetic acid. Removed the residual wash solution with a piece of absorbent paper. Air-dried the culture plates, dissolved the protein-bound dye with 100 μl/well of 10 mM Tris base solution. Shook the plates until the dye was dissolved completely.

T1 sequence (P00533 25-1210): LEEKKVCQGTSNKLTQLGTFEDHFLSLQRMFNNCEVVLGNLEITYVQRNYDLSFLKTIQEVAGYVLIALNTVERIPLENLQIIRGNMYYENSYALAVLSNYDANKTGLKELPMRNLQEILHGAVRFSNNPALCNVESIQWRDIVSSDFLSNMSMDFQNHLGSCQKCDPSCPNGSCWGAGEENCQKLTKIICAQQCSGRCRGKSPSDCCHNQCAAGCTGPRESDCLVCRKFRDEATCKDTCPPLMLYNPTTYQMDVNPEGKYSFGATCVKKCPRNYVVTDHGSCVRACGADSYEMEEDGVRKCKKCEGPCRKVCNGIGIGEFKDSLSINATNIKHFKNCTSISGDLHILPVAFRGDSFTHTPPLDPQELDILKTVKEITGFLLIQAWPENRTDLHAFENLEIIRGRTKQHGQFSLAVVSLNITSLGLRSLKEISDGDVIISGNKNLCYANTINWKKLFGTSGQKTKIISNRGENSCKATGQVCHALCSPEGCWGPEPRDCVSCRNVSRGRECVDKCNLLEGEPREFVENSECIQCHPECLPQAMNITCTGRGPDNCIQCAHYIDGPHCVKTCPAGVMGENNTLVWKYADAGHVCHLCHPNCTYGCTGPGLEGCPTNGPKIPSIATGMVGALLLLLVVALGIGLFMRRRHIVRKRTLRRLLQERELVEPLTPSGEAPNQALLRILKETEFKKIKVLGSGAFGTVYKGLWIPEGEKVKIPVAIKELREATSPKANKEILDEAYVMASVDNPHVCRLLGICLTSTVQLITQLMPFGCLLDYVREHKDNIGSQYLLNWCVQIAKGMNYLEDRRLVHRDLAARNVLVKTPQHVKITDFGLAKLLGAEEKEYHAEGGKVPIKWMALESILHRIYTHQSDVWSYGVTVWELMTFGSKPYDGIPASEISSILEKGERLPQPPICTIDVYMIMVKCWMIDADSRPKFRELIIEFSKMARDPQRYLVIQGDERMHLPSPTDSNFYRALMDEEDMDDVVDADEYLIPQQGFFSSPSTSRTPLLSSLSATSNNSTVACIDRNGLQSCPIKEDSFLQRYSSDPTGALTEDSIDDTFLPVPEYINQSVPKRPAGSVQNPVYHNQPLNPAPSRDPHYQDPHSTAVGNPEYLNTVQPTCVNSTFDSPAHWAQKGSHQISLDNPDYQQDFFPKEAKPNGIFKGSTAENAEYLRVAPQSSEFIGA

Row | EC50 [1] [nM] | inhibition at 3 µM [1] [%] | EC50 [2] [nM] | EC50 ([3]; A-431, 72 hours (Table 11)) [nM] | SMILES | inhibition at 3 µM [3] [%] | inhibition at 3 µM [4] [%]
1 | 150 | 85 | 2000 |  | C#Cc1cccc(Nc2ncnc3ccc(NC(=O)C=C4CCNCC4)cc23)c1 [Example 3, N-(4-(3-ethynylphenylamino)quinazolin-6-yl)-2-(piperidin-4-ylidene)acetamide] |  | 
2 | 580 | 78 | 1800 |  | C#Cc1cccc(Nc2ncnc3ccc(NC(=O)C=C4CCN(C)CC4)cc23)c1 [Example 4, N-(4-(3-ethynylphenylamino)quinazolin-6-yl)-2-(1-methylpiperidin-4-ylidene)acetamide] |  | 
3 | 400 | 65 | 5000 |  | C#Cc1cccc(Nc2ncnc3ccc(NC(=O)C=C4CCN(CCOC)CC4)cc23)c1 [Example 7, N-(4-(3-ethynylphenylamino)quinazolin-6-yl)-2-(1-(2-methoxyethyl)piperidin-4-ylidene)acetamide] |  | 
4 | 760 | 68 | 13000 |  | C[C@H](Nc1ncnc2ccc(NC(=O)C=C3CCNCC3)cc12)c1ccccc1 [Example 34, N-(4-((S)-1-phenylethylamino)quinazolin-6-yl)-2-(piperidin-4-ylidene)acetamide] |  | 
5 | 980 | 57 | 30000 |  | O=C(C=C1CCNCC1)Nc1ccc2ncnc(Nc3cccc(Cl)c3)c2c1 [Example 36, N-(4-(3-chlorophenylamino)quinazolin-6-yl)-2-(piperidin-4-ylidene)acetamide] |  | 
6 |  | 71 | 1500 |  | O=C(C=C1CCNCC1)Nc1ccc2ncnc(Nc3ccc4[nH]ccc4c3)c2c1 [Example 41, N-(4-(1H-indol-5-ylamino)quinazolin-6-yl)-2-(piperidin-4-ylidene)acetamide] |  | 
7 |  | 95 | 150 |  | C#Cc1cccc(Nc2ncnc3cc(OCCCOC)c(NC(=O)C=C4CCNCC4)cc23)c1 [Example 50, N-(4-(3-ethynylphenylamino)-7-(3-methoxypropoxy)quinazolin-6-yl)-2-(piperidin-4-ylidene)acetamide] |  | 
8 |  | 41 | 1900 |  | COCCN1CCC(=CC(=O)Nc2cc3c(Nc4ccc(OCc5ccccn5)c(Cl)c4)ncnc3cc2OC)CC1 [Example 118, N-(4-(3-chloro-4-(pyridin-2-ylmethoxy)phenylamino)-7-methoxyquinazolin-6-yl)-2-(1-(2-methoxyethyl)piperidin-4-ylidene)acetamide] |  | 
9 |  | 96 | 250 | 1450 | CCOc1cc2ncc(C#N)c(Nc3ccc(OCc4ccccn4)c(Cl)c3)c2cc1NC(=O)C=C1CCNCC1 [Example 143, N-(4-(3-chloro-4-(pyridin-2-ylmethoxy)phenylamino)-3-cyano-7-ethoxyquinolin-6-yl)-2-(piperidin-4-ylidene)acetamide] | 70 | 55
10 |  |  |  |  | CCOc1cc2ncc(C#N)c(Nc3ccc(OCc4cccc(F)c4)c(Cl)c3)c2cc1NC(=O)C=C1CCN(CCOC)CC1 [Example 163, N-(4-(4-(3-fluorobenzyloxy)-3-chlorophenylamino)-3-cyano-7-ethoxyquinolin-6-yl)-2-(1-(2-methoxyethyl)piperidin-4-ylidene)acetamide] | 40 | 87
11 |  |  |  |  | COCCOc1cc2ncc(C#N)c(Nc3ccc(OCc4ccccn4)c(Cl)c3)c2cc1NC(=O)C=C1CCNCC1 [Example 165, N-(4-(3-chloro-4-(pyridin-2-ylmethoxy)phenylamino)-3-cyano-7-(2-methoxyethoxy)quinolin-6-yl)-2-(piperidin-4-ylidene)acetamide] | 53 | 87
12 |  |  |  |  | N#Cc1cnc2ccc(NC(=O)C=C3CCNCC3)cc2c1Nc1ccc(OCc2ccccn2)c(Cl)c1 [Example 166, N-(4-(3-chloro-4-(pyridin-2-ylmethoxy)phenylamino)-3-cyanoquinolin-6-yl)-2-(ppiperidin-4-ylidene)acetamide] | 49 | 85
13 |  |  |  |  | COCCOc1cc2ncc(C#N)c(Nc3ccc(OCc4cccc(F)c4)c(Cl)c3)c2cc1NC(=O)C=C1CCNCC1 [Example 167, N-(4-(4-(3-fluorobenzyloxy)-3-chlorophenylamino)-3-cyano-7-(2-methoxyethoxy)quinolin-6-yl)-2-(piperidin-4-ylidene)acetamide] | 45 | 84
14 |  |  |  |  | N#Cc1cnc2ccc(NC(=O)C=C3CCNCC3)cc2c1Nc1ccc(OCc2cccc(F)c2)c(Cl)c1 [Example 168, N-(4-(4-(3-fluorobenzyloxy)-3-chlorophenylamino)-3-cyanoquinolin-6-yl)-2-(piperidin-4-ylidene)acetamide] | 41 | 89
15 |  |  |  |  | C#Cc1cccc(Nc2c(C#N)cnc3cc(OCCOC)c(NC(=O)C=C4CCNCC4)cc23)c1 [Example 169, N-(3-cyano-4-(3-ethynylphenylamino)-7-(2-methoxyethoxy)quinolin-6-yl)-2-(piperidin-4-ylidene)acetamide] | 92 | 58
16 |  |  |  |  | C#Cc1cccc(Nc2c(C#N)cnc3ccc(NC(=O)C=C4CCNCC4)cc23)c1 [Example 170, N-(3-cyano-4-(3-ethynylphenylamino)quinolin-6-yl)-2-(piperidin-4-ylidene)acetamide] | 88 | 56
17 |  |  |  |  | COCCOc1cc2ncc(C#N)c(Nc3cccc(Br)c3)c2cc1NC(=O)C=C1CCNCC1 [Example 171, N-(4-(3-bromophenylamino)-3-cyano-7-(2-methoxyethoxy)quinolin-6-yl)-2-(piperidin-4-ylidene)acetamide] | 86 | 60
18 |  |  |  |  | N#Cc1cnc2ccc(NC(=O)C=C3CCNCC3)cc2c1Nc1cccc(Br)c1 [Example 172, N-(4-(3-bromophenylamino)-3-cyanoquinolin-6-yl)-2-(piperidin-4-ylidene)acetamide] | 84 | 61
19 |  |  |  |  | N#Cc1cnc2ccc(NC(=O)C=C3CCNCC3)cc2c1Nc1ccc(F)c(Cl)c1 [Example 173, N-(4-(3-chloro-4-fluorophenylamino)-3-cyanoquinolin-6-yl)-2-(piperidin-4-ylidene)acetamide] | 87 | 44

Row | SMILES | EC50 [1] [nM] | inhibition at 3 µM [1] [%] | EC50 [2] [nM] | EC50 ([3]; A-431, 72 hours (Table 11)) [nM] | inhibition at 3 µM [3] [%] | inhibition at 3 µM [4] [%]
20 | N#Cc1cnc2ccc(N)cc2c1Nc1cccc(Br)c1 [Example 134, 6-amino-4-(3-bromophenylamino)quinoline-3-carbonitrile] |  | 59 | 900 |  |  | 
